From ChEMBL document CHEMBL5291721, “A preclinical secondary pharmacology resource illuminates target-adverse drug reaction associations of marketed drugs” (Nat Commun, 2023)

Experiments:
[1] = target: T1, Muscarinic acetylcholine receptor M4 (Homo sapiens, UniProt P08173)
T1 sequence (P08173 whole entry): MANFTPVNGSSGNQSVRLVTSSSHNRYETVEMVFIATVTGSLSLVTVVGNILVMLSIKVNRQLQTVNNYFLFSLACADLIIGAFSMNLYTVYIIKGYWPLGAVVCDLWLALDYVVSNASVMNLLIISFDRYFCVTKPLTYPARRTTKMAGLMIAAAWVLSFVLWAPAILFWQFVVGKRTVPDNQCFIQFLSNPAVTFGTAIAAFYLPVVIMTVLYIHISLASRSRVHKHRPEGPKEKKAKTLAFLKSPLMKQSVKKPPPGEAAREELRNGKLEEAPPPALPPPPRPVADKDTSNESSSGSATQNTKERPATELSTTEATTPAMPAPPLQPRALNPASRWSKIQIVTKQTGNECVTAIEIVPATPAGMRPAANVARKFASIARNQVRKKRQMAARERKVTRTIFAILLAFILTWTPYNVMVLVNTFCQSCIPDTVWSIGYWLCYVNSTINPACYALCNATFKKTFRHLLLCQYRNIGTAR

Substance-K receptor = target: T2, Substance-K receptor (Homo sapiens, UniProt P21452)
T2 sequence (P21452 whole entry): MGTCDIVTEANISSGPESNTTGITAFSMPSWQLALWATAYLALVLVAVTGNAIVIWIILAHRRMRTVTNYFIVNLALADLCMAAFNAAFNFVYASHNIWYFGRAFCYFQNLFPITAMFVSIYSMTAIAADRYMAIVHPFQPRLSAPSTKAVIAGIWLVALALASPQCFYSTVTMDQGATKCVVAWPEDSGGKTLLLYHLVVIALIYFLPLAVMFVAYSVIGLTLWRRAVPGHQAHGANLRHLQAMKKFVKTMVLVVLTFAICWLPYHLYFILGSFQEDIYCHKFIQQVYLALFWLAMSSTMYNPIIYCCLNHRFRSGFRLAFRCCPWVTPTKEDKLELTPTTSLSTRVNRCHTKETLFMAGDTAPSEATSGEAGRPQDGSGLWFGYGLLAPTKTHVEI

[2] = target: T3, Type-2 angiotensin II receptor (Homo sapiens, UniProt P50052); assay type: functional
T3 sequence (P50052 whole entry): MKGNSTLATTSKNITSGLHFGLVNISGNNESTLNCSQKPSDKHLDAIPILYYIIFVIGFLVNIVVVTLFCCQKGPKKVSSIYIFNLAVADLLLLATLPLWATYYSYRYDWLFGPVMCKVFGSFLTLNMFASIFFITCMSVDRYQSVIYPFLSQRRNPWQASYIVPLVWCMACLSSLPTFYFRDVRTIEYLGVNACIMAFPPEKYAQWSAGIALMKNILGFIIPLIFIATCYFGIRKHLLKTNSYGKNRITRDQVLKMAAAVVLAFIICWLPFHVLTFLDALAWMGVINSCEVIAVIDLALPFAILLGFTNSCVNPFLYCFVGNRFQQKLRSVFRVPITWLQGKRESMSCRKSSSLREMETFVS

[3] = target: T4, Oxysterols receptor LXR-alpha (Homo sapiens, UniProt Q13133); assay type: functional
T4 sequence (Q13133 whole entry): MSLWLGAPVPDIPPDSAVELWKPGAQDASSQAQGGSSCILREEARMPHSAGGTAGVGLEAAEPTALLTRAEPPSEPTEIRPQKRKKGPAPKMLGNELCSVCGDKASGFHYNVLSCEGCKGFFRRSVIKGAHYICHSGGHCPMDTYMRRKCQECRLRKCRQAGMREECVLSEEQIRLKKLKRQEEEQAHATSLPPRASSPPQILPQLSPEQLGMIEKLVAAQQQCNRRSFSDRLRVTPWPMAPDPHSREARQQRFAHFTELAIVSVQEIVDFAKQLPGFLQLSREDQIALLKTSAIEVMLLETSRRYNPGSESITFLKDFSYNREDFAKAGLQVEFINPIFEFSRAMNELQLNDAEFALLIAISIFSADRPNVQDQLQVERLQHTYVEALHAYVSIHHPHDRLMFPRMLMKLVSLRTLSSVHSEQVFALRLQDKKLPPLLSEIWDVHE

[4] = target: T5, Oxysterols receptor LXR-beta (Homo sapiens, UniProt P55055); assay type: functional
T5 sequence (P55055 whole entry): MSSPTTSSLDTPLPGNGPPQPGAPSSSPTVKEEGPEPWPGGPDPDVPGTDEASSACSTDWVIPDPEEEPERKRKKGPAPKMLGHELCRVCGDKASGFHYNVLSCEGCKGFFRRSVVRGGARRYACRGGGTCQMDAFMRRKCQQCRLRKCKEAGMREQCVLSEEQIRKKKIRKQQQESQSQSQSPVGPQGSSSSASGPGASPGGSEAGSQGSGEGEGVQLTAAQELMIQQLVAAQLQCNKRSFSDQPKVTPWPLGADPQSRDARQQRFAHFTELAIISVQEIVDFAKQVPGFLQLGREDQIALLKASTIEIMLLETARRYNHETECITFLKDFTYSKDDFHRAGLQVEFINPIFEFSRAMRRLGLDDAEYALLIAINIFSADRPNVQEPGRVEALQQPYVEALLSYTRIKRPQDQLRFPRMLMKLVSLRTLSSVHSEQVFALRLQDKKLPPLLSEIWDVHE

Bile acid receptor = target: T6, Bile acid receptor (Homo sapiens, UniProt Q96RI1); assay type: functional
T6 sequence (Q96RI1 whole entry): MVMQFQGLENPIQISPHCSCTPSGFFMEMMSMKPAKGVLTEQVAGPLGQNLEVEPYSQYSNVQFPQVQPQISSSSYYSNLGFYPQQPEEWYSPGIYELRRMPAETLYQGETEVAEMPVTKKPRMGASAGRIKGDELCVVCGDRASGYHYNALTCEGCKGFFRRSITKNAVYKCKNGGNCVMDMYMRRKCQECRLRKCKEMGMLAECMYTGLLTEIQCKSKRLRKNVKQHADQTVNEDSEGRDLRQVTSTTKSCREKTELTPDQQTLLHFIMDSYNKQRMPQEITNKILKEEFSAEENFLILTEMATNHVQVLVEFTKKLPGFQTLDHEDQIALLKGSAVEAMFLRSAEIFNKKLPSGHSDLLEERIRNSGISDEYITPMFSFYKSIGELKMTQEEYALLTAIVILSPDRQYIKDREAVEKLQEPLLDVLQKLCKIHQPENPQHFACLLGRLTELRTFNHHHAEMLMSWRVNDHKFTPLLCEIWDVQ
Note: assay procedure not described here.

CCOC(=O)[C@H](CCc1ccccc1)N[C@@H](C)C(=O)N1Cc2ccccc2C[C@H]1C(=O)O
AC50 [1]: > 10 µM | AC50 (Substance-K receptor): > 10 µM

C[C@H](CS)C(=O)N1CCC[C@H]1C(=O)O [CAPTOPRIL]
AC50 [2]: > 100 µM

CC(C)/N=c1\cc2n(-c3ccc(Cl)cc3)c3ccccc3nc-2cc1Nc1ccc(Cl)cc1 [CLOFAZIMINE]
AC50 [3]: > 30 µM | AC50 [4]: > 30 µM | AC50 (Bile acid receptor): > 30 µM
